The target of assay [1] is T1, HIV protease (Human immunodeficiency virus type 1 group M subtype B, UniProt P04585).
T1 construct: HIV protease was expressed in E. coli; made in house; host or cells: E. coli (plasmid pBRT1 prt+)
The experiment in a line: Recombinant HIV Protease HPLC Assay. Type of assay: biochemical. The following applies: Table V; 37°, 30 min, pH 5.5. The gist of the method: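 Recombinant protease from E. coli (pBRT1 prt+ construct), purified and diluted 1/38 for use, cleaves the decapeptide substrate VSFNFPQITL-NH2, containing an HIV polyprotein cleavage site. Inhibition of cleavage is monitored by HPLC.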

The test system of assay [2] is HIV (H9/HTLV-IIIB) in C8166 cells. The experiment in a line: plaque assay: inhibition of syncytia formation in HIV-infected C8166 cells. Type of assay: cell-based. The settings on record: Table V, 72 h, 50% inhibition of syncytia formation. The gist of the method: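 C8166 cells (5×10^4/well) infected with 50× TCID50 H9/HTLV-IIIB in HEPES-buffered RPMI 1640 (pH 7.2), 10% FCS, with test compound in triplicate; 72 h at 37°, 5% CO2. Syncytia centers counted by phase-contrast microscopy; EC50 from percent inhibition versus serial dilutions by non-linear regression.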

[3] abbreviates: Human immunodeficiency virus 1, IIIB.

As a reminder, the IC50 is the concentration that gives 50% inhibition. One may read the EC50 as the concentration giving half of the maximal effect. Read a low EC50 as higher potency in that assay. For `Cc1cc(C)nc(S[C@@H]2CCN(C[C@@H](O)[C@H](Cc3ccccc3)NC(=O)[C@@H](NC(=O)c3ccc4ccccc4n3)C(C)C)[C@H](C(=O)NC(C)(C)C)C2)n1` [Table V, entry 4, N-tert-butyl-1-{2(R)-hydroxy-4-phenyl-3(S)-{{N-(2-quinolylinylcarbonyl)valyl}amino}butyl}-4(R)-{(4,6-dimethyl-2-pyrimidinyl)thio}piperidine-2-carboxamide], the IC50 in assay [1] was determined as 2.7 nM. In assay [2] (setting [3]), this molecule came in with an EC50 of 8 nM.
For `CC(C)[C@H](NC(=O)c1ccc2ccccc2n1)C(=O)N[C@@H](Cc1ccccc1)[C@H](O)CN1CC[C@@H](Sc2ccncc2)C[C@H]1C(=O)NC(C)(C)C` [Table V, entry 5, N-tert-butyl-1-{2(S)(R)-hydroxy-4-phenyl-3(S)-{{N-(2-quinolylinylcarbonyl)valyl}amino}butyl}-4(R)-(4-pyridinylthio)piperidine-2-carboxamide], in that order: 1.5 nM and 3 nM.
Taken in the same sequence, the figures for `CC(C)[C@H](NC(=O)c1ccc2ccccc2n1)C(=O)N[C@@H](Cc1ccccc1)[C@H](O)CN1CC[C@@H](Sc2ccccn2)C[C@H]1C(=O)NC(C)(C)C` [Table V, entry 6, N-tert-butyl-1-{2(S)(R)-hydroxy-4-phenyl-3(S)-{{N-(2-quinolylinylcarbonyl)valyl}amino}butyl}-4(R)-(2-pyridinylthio)piperidine-2-carboxamide] were 1.9 nM and 4 nM.
For `CC(C)[C@H](NC(=O)c1ccc2ccccc2n1)C(=O)N[C@@H](Cc1ccccc1)[C@H](O)CN1CC[C@@H](Oc2ccccc2)C[C@H]1C(=O)NC(C)(C)C` [Table V, entry 7, N-tert-butyl-1-{2(S)(R)-hydroxy-4-phenyl-3(S)-{{N-(2-quinolylinylcarbonyl)valyl}amino}butyl}-4(R)-phenoxypiperidine-2-carboxamide], in that order: 3.4 nM and 14 nM.
On to `CC(C)[C@H](NC(=O)c1ccc2ccccc2n1)C(=O)N[C@@H](Cc1ccccc1)[C@H](O)CN1CC[C@@H](SCc2cccnc2)C[C@H]1C(=O)NC(C)(C)C` [Table V, entry 8, N-tert-butyl-1-{2(S)(R)-hydroxy-4-phenyl-3(S)-{{N-(2-quinolylinylcarbonyl)valyl}amino}butyl}-4(R)-{(3-pyridinylmethyl)thio}piperidine-2-carboxamide], for which the IC50 in assay [1] was 2.2 nM. This molecule also yielded an EC50 in assay [2] (setting [3]) of 3 nM.
In the case of `CC(C)[C@H](NC(=O)c1ccc2ccccc2n1)C(=O)N[C@@H](Cc1ccccc1)[C@H](O)CN1CC[C@@H](SCc2ccccn2)C[C@H]1C(=O)NC(C)(C)C` [Table V, entry 9, N-tert-butyl-1-{2(S)(R)-hydroxy-4-phenyl-3(S)-{{N-(2-quinolylinylcarbonyl)valyl}amino}butyl}-4(R)-{(2-pyridinylmethyl)thio}piperidine-2-carboxamide], the IC50 in assay [1] worked out at 4.2 nM. This molecule came in with an EC50 in assay [2] (setting [3]) of 5 nM.
As to `CC(C)[C@H](NC(=O)c1ccc2ccccc2n1)C(=O)N[C@@H](Cc1ccccc1)[C@H](O)CN1CC[C@@H](Oc2ncccn2)C[C@H]1C(=O)NC(C)(C)C` [Table V, entry 10, N-tert-butyl-1-{2(S)(R)-hydroxy-4-phenyl-3(S)-{{N-(2-quinolylinylcarbonyl)valyl}amino}butyl}-4(R)-(2-pyrimidinyloxy)piperidine-2-carboxamide], the IC50 in assay [1] was found to be 3.2 nM. This molecule showed a concentration for a half-maximal effect (EC50) in assay [2] (setting [3]) of 25 nM.
For `Cc1cc(C)nc(O[C@@H]2CCN(C[C@@H](O)[C@H](Cc3ccccc3)NC(=O)[C@@H](NC(=O)c3ccc4ccccc4n3)C(C)C)[C@H](C(=O)NC(C)(C)C)C2)n1` [Table V, entry 11, N-tert-butyl-1-{2(S)(R)-hydroxy-4-phenyl-3(S)-{{N-(2-quinolylinylcarbonyl)valyl}amino}butyl}-4(R)-{(4,6-dimethyl-2-pyrimidinyl)oxy}piperidine-2-carboxamide], in that order: 4 nM and 20 nM.
Taken in the same sequence, the figures for `Cc1ccnc(O[C@@H]2CCN(C[C@@H](O)[C@H](Cc3ccccc3)NC(=O)[C@@H](NC(=O)c3ccc4ccccc4n3)C(C)C)[C@H](C(=O)NC(C)(C)C)C2)n1` [Table V, entry 12, N-tert-butyl-1-{2(S)(R)-hydroxy-4-phenyl-3(S)-{{N-(2-quinolylinylcarbonyl)valyl}amino}butyl}-4(R)-{(4-methyl-2-pyrimidinyl)oxy}piperidine-2-carboxamide] were 4.5 nM and 44 nM.
For `Cc1cc(O[C@@H]2CCN(C[C@@H](O)[C@H](Cc3ccccc3)NC(=O)[C@@H](NC(=O)c3ccc4ccccc4n3)C(C)C)[C@H](C(=O)NC(C)(C)C)C2)nc(C)n1` [Table V, entry 13, N-tert-butyl-1-{2(S)(R)-hydroxy-4-phenyl-3(S)-{{N-(2-quinolylinylcarbonyl)valyl}amino}butyl}-4(R)-{(2,6-dimethyl-4-pyrimidinyl)oxy}piperidine-2-carboxamide], in that order: 3.6 nM and 17 nM.
Turning to `CC(C)[C@H](NC(=O)c1ccc2ccccc2n1)C(=O)N[C@@H](Cc1ccccc1)C(O)CN1CC[C@@H](S(=O)(=O)c2ccccc2)CC1C(=O)NC(C)(C)C` (stereo partly drawn) [Table V, entry 14, N-tert-butyl-1-{2(S)(R)-hydroxy-4-phenyl-3(S)-{{N-(2-quinolylinylcarbonyl)valyl}amino}butyl}-4(R)-(phenylsulfonyl)piperidine-2-carboxamide], the IC50 in assay [1] is 2.9 nM. This molecule also yielded an EC50 in assay [2] of 23 nM.
In the case of `CC(C)[C@H](NC(=O)c1ccc2ccccc2n1)C(=O)N[C@@H](Cc1ccccc1)[C@H](O)CN1CC[C@@H](Oc2ccc(F)cc2)C[C@H]1C(=O)NC(C)(C)C` [Table V, entry 15, N-tert-butyl-1-{2(S)(R)-hydroxy-4-phenyl-3(S)-{{N-(2-quinolylinylcarbonyl)valyl}amino}butyl}-4(R)-{(4-fluorophenyl)oxy}piperidine-2-carboxamide], in assay [1], the IC50 came out at 2.6 nM. This molecule also registered an EC50 in assay [2] (setting [3]) of 22 nM.
Taken in the same sequence, the figures for `CC(C)[C@H](NC(=O)c1ccc2ccccc2n1)C(=O)N[C@@H](Cc1ccccc1)[C@H](O)CN1CC[C@@H](OCc2ccncc2)C[C@H]1C(=O)NC(C)(C)C` [Table V, entry 16, N-tert-butyl-1-{2(S)(R)-hydroxy-4-phenyl-3(S)-{{N-(2-quinolylinylcarbonyl)valyl}amino}butyl}-4(R)-(4-pyridinylmethoxy)piperidine-2-carboxamide] were 4.2 nM and 22 nM.
On to `CC(C)[C@H](NC(=O)c1ccc2ccccc2n1)C(=O)N[C@@H](Cc1ccccc1)[C@H](O)CN1CC[C@@H](S(=O)(=O)Cc2ccccn2)C[C@H]1C(=O)NC(C)(C)C` [Table V, entry 17, N-tert-butyl-1-{2(S)(R)-hydroxy-4-phenyl-3(S)-{{N-(2-quinolylinylcarbonyl)valyl}amino}butyl}-4(R)-{(2-pyridinylmethyl)sulfonyl}piperidine-2-carboxamide], for which the IC50 in assay [1] turned out to be 2.4 nM. Moreover, the EC50 in assay [2] (setting [3]) was 33 nM.
For `CC(C)[C@H](NC(=O)c1ccc2ccccc2n1)C(=O)N[C@@H](Cc1ccccc1)[C@H](O)CN1CC[C@@H](S(=O)(=O)Cc2cccnc2)C[C@H]1C(=O)NC(C)(C)C` [Table V, entry 18, N-tert-butyl-1-{2(S)(R)-hydroxy-4-phenyl-3(S)-{{N-(2-quinolylinylcarbonyl)valyl}amino}butyl}-4(R)-{(3-pyridinylmethyl)sulfonyl}piperidine-2-carboxamide], in that order: 1.8 nM and 67 nM.
As to `CC(C)[C@H](NC(=O)c1ccc2ccccc2n1)C(=O)N[C@@H](Cc1ccccc1)[C@H](O)CN1CC[C@@H](S(=O)(=O)Cc2ccncc2)C[C@H]1C(=O)NC(C)(C)C` [Table V, entry 19, N-tert-butyl-1-{2(S)(R)-hydroxy-4-phenyl-3(S)-{{N-(2-quinolylinylcarbonyl)valyl}amino}butyl}-4(R)-{(4-pyridinylmethyl)sulfonyl}piperidine-2-carboxamide], the IC50 in assay [1] amounted to 4.6 nM. Moreover, in assay [2] (setting [3]), the EC50 was found to be 73 nM.
Taken in the same sequence, the figures for `CC(C)[C@H](NC(=O)c1ccc2ccccc2n1)C(=O)N[C@@H](Cc1ccccc1)[C@H](O)CN1CC[C@@H](S(=O)(=O)c2ccccn2)C[C@H]1C(=O)NC(C)(C)C` [Table V, entry 20, N-tert-butyl-1-{2(S)(R)-hydroxy-4-phenyl-3(S)-{{N-(2-quinolylinylcarbonyl)valyl}amino}butyl}-4(R)-(2-pyridinylsulfonyl)piperidine-2-carboxamide] were 1.7 nM and 13 nM.
For `CC(C)[C@H](NC(=O)c1ccc2ccccc2n1)C(=O)N[C@@H](Cc1ccccc1)[C@H](O)CN1CC[C@@H](S(=O)(=O)c2ccncc2)C[C@H]1C(=O)NC(C)(C)C` [Table V, entry 21, N-tert-butyl-1-{2(R)-hydroxy-4-phenyl-3(S)-{{N-(2-quinolylinylcarbonyl)valyl}amino}butyl}-4(R)-(4-pyridinylsulfonyl)piperidine-2(S)-carboxamide], in that order: 1.7 nM and 25 nM.
For `Cc1cc(S[C@@H]2CCN(C[C@@H](O)[C@H](Cc3ccccc3)NC(=O)[C@@H](NC(=O)c3ccc4ccccc4n3)C(C)C)[C@H](C(=O)NC(C)(C)C)C2)nc(C)n1` [Table V, entry 22, N-tert-butyl-1-{2(R)-hydroxy-4-phenyl-3(S)-{{N-(2-quinolylinylcarbonyl)valyl}amino}butyl}-4(R)-{(2,6-dimethyl-4-pyrimidinyl)thio}piperidine-2(S)-carboxamide], in that order: 2.4 nM and 11 nM.

These data come from patent publication US5614533A, “Substituted pipecolinic acid derivatives as HIV protease inhibitors” (Bio-Mega/Boehringer Ingelheim Research, Inc., priority 1994, dated 1997).
